Assays:
[1] = test system: cultured cortical astrocytes; assay: sniffer-patch detection of glutamate release from cultured wild-type astrocytes with GluR1(L497Y)-transfected HEK cells; format: cell-based, mice; conditions: for inward current in HEK cells expressing GluR1(L497Y): brief (<1 sec) pressure application, 500 μM TFLLR, 300 μM ATP, 180 μM bradykinin, wild-type astrocytes
Experimental: (§1) HEK 293 cells were transfected with a 1:3.5 ratio of GFP and GluR1(L497Y) using the calcium phosphate method using effectence for 6-8 hours, after which the media was replaced and supplemented with 1 mM kynurenic acid and 10 μM N-(4-hydroxyphenylpropanoyl) spermine or 10 μM CNQX. The transfected HEK cells were subsequently trypsinized and replated onto astrocyte feeder layers derived from either wild-type or PAR1−/− mice 24 hours post-transfection, and recordings were performed 24 hours after replating. The prepared transfectant was used as a biosensor in the following examples.
In this experimental example, the glutamate release from astrocytes was quantitatively evaluated in real time by a “sniffer-patch” detection system. […] The “sniffer-patch” method was performed according to “T. G. J. Allen, Trends Neurosci., Vol. 20, No. 5 pp. […], 1997”, unless there is different mention thereto.
Cultured astrocytes were prepared from P0-P3 postnatal mice obtained from KIST SPF. The cerebral cortex was dissected free of adherent meninges, minced, and dissociated into single cell suspension by trituration through a Pasteur pipette. All procedures involving the use of animals were reviewed and approved by the Emory University IACUC. Dissociated cells were plated onto either 12 mm glass coverslips or 6 well plates coated with 0.1 mg/ml poly-D-lysine. Cells were grown in DMEM media (Gibco, cat# 11960-044) supplemented with 25 mM glucose, 10% heat-inactivated horse serum, and 10% heat-inactivated fetal bovine serum, 2 mM glutamine, and 1000 units/ml penicillin-streptomycin. Cultures were maintained at 37° C. in a humidified 5% CO2-containing atmosphere. Astrocyte cultures prepared in this way were previously determined by GFAP (glial fibrillary acidic protein) staining to be greater than 95% astrocytes (Nicole et al., 2005). In some experiments, the culture media was replaced 24 hours after plating with DMEM with all added components except glutamine, and cultures were maintained for 4 days before experimentation in glutamine-free media.
Thus, this technique provides millisecond time resolution for the detection of micromolar levels of glutamate released from astrocytes.
(§2) GluR1(L497Y)-transfected HEK cells were directly plated onto an astrocyte monolayer, and subsequently the whole cell HEK current response under voltage clamp during brief 0.2 sec application of the PAR1 activator TFLLR (500 μM), ATP (300 μM), or bradykinin (180 μM), respectively, from a pressurized pipette was recorded (FIGS. 1a, and 1b).

wild-type astrocytes = assay: Fura-2 Ca2+ imaging in wild-type astrocytes; format: cell-based, mice; conditions: brief (<1 sec) pressure application; 500 μM TFLLR, 300 μM ATP, 180 μM bradykinin; Fura-2-AM
Experimental: (§3) FIG. 1a is a schematic illustrating experimental setup and a GFP fluorescent image of astrocyte—GluR1(L497Y)/GFP transfected HEK cell co-culture (upper left panel). […] The Fura2-AM loading was performed by incubating with 5 μM Fura2-AM in 1 μM pluronic acid (Molecular Probes) for 30 min at room temperature. The calibration bar is 20 μm.

cultured neurons = assay: glutamate release from cultured neurons detected with GluR1(L497Y)-transfected HEK cells; format: cell-based
Experimental: To verify this prediction, effects of a hyperosmotic solution on the glutamate-release from cultured neurons and astrocytes were evaluated and are shown in FIGS. 3a to 3c.
The detection is abolished by the treatment of 10 μM CNQX. The right panel is the summary of the current amplitude changes; *p<0.05; paired t-test (n=6).
That is, a brief application of TFLLR caused no detectable glutamate-induced current in GluR1(L497Y)-transfected HEK cells adjacent to neurons.

NR1-1a/NR2A2D = assay: D-serine or glycine release from astrocytes detected with NR1-1a/NR2A2D-transfected HEK cells; format: cell-based; conditions: 100 uM glutamate + 10 uM DCKA vs 100 uM glutamate alone; 500 uM TFLLR
Experimental: HEK 293 cells were transfected NR1-1a and NR2A2D at a ratio of 1:2 by using the calcium phosphate method using effectence for 6-8 hours, after which the media was replaced and supplemented with 5 mM magnesium chloride and 10 μM D-2-amino-phosphonopentanoic acid or 10 μM D-AP5. The transfected HEK cells were subsequently trypsinized and replated onto astrocyte feeder layers derived from wild-type 24 hours post-transfection, and recordings performed 24 hours after replating. The prepared transfectant was used as a biosensor in the following examples.
To activate the NMDA receptor, it is necessary for the two subunits to bind to the corresponding binding materials, respectively. The activation may be confirmed by measuring intracellular inward current.
In this example, the media was supplemented with sufficient glutamate to saturate the glutamate domain. The intracellular inward current in the biosensor prepared in Example 5, under the conditions with or without treating a glycine binding domain blocker, DCKA, which artificially makes a glycine-free or D-serine-free condition, to examine the glycine or D-serine detecting ability of the biosensor.

PAR1-/- astrocytes [2] = assay: sniffer-patch detection of glutamate release from PAR1-/- astrocytes with GluR1(L497Y)-transfected HEK cells; format: cell-based, mice
Experimental: as §1, §2

PAR1-/- astrocytes [3] = assay: Ca2+-sensitive dye imaging in PAR1-/- astrocytes; format: cell-based, mice; conditions: TFLLR application
Experimental: as §3
(§4) These control experiments were performed on the same day as TFLLR stimulation of HEK cells on wild-type astrocytes, and confirm that PAR1 activators had no direct effect on GluR1(L497Y) currents in HEK cells.

HEK cells = assay: Ca2+-sensitive dye imaging in HEK cells (endogenous PAR1); format: cell-based; conditions: TFLLR application, co-culture on PAR1-/- astrocytes
Experimental: as §3, §4

[4] = test system: acutely dissociated CA1 astrocytes; assay: glutamate release from acutely dissociated CA1 hippocampal astrocytes detected with GluR1(L497Y)-transfected HEK cells; format: cell-based, mice; conditions: brief (1 sec) application of TFLLR; n=4
From the text: Cells were acutely dissociated from the CA1 region of hippocampal slices prepared from transgenic mice (Jackson Laboratories) expressing GFP under control of the GFAP promoter (Brenner et al., 1994), allowing to unambiguously identify isolated hippocampal astrocytes that had not been subject to tissue culture. Cells were dissociated directly onto GluR1(L497Y)-transfected HEK cells obtained in Example 1.

GluR1(L497Y) = molecular target: T1, GluR1(L497Y) (Rattus norvegicus, UniProt P19490, L497Y); assay: glutamate activation of GluR1(L497Y) current in transfected HEK cells (dose response); format: cell-based
T1 construct: expressed in transfected cells; host or cells: HEK 293 cells (ATCC1573)
T1 sequence (P19490 19-907 L497Y): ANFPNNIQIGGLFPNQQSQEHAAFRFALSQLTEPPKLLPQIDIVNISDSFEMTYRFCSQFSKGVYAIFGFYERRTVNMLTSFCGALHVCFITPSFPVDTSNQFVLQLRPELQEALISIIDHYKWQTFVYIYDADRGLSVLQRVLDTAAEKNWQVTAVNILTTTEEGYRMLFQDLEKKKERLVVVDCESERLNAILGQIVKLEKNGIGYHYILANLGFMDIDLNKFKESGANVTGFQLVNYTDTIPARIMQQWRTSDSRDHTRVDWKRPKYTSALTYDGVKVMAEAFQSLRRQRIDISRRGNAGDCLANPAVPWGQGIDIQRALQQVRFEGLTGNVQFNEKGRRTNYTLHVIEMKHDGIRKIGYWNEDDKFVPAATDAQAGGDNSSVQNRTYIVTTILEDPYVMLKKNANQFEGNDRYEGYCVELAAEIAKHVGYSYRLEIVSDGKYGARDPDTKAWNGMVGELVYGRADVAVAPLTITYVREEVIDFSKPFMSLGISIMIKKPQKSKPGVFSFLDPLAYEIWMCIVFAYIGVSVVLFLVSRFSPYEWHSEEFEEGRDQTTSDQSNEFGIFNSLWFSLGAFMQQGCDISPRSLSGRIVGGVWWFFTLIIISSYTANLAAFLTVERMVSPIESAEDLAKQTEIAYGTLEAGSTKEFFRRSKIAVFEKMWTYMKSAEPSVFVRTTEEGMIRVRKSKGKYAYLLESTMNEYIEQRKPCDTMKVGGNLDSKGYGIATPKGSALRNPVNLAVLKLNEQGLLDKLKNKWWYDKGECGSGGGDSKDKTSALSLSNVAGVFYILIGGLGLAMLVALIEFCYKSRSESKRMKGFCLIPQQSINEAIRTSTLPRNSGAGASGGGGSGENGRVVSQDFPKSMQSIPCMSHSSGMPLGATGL
Experimental: as §1

Compound: Nc1ncnc2c1ncn2[C@@H]1O[C@H](COP(=O)(O)OP(=O)(O)OP(=O)(O)O)[C@@H](O)[C@H]1O [ATP]
- inward current in HEK cells expressing GluR1(L497Y) [1]: elicited an inward current
- astrocytic intracellular Ca2+ (wild-type astrocytes): increased

Compound: N#Cc1cc2[nH]c(=O)c(=O)[nH]c2cc1[N+](=O)[O-] [CNQX]
- effect on inward currents evoked by TFLLR ([1]; CNQX 10 μM, glutamine-free medium): completely abolished
- effect on detection of neuronal glutamate release evoked by hyperosmotic solution (cultured neurons; 10 μM CNQX, hyperosmotic solution 530 mosmol): abolished

Compound: O=C(O)c1cc(=O)c2c(Cl)cc(Cl)cc2[nH]1 [DCKA, 5,7-dichlorokynurenic acid]
- inward current value after treating TFLLR (NR1-1a/NR2A2D): considerably decreased

Compound: TFLLR
- current response, % of the maximal response ([1]; astrocytes cultured in the absence of glutamine, TFLLR 500 μM, n=4): 9.7 ± 1.3%
- inward current in HEK cells expressing GluR1(L497Y) [1]: elicited an inward current
- glutamate evoked current (%) ([1]; percent of maximal response, applied to wild-type astrocytes, glutamine-containing medium, TFLLR 500 μM in pipette): 10±2.6%
- glutamate-induced current in GluR1(L497Y) HEK cells on astrocytes ([1]; same-day positive control, TFLLR or hyperosmotic solution, n=4): 136±35 pA
- peak (maximum) glutamate concentration ([1]; wild-type astrocyte cultures, TFLLR application, converted from current by Formula 1): 1.1 ± 0.24 µM
- peak (maximum) glutamate concentration (PAR1-/- astrocytes [2]; PAR1-/- astrocyte cultures, TFLLR application, converted from current by Formula 1): 0.23 ± 0.13 µM
- glutamate evoked current (%) (PAR1-/- astrocytes [2]; percent of maximal response, applied to PAR1-/- astrocytes): 1.4±0.9%
- astrocytic intracellular Ca2+ (wild-type astrocytes): increased
- PAR1-/- astrocytic intracellular Ca2+ (PAR1-/- astrocytes [3]): did not alter
- HEK cell intracellular Ca2+ (HEK cells): did increase
- glutamate release (concentration) evoked by TFLLR [4]: 1.46 ± 0.54 µM
- glutamate-induced current in GluR1(L497Y) HEK cells adjacent to neurons (cultured neurons; 30 μM TFLLR or hyperosmotic solution, n=3): 3.0±0.1 pA

Compound: N[C@@H](CCC(=O)O)C(=O)O [glutamate]
- Hill slope (GluR1(L497Y)): 1.3

Reference: patent publication US7842471B2, “Ultra sensitive biosensor for detecting bio-signal transmitters, and detector and detecting method using the same” (priority 2007, dated 2010)
